Results on 2 molecules are retold here after patent publication US20170285002A1, “METHOD FOR RECONSTITUTING TUMOR WITH MICROENVIRONMENT” (Public University Corporation Yokohama City University, priority 2016, published 2017).

Molecules are shown by their SMILES.

Assay [1] concerns luciferase gene-transfected human pancreatic cancer cell line. Briefly: In vitro drug sensitivity of pancreatic cancer organoid versus plane-cultured cells (luciferase activity). It is filed as cell-based. The method, then: In each graph, the ordinate depicts the amount of luciferase activity of the pancreatic cancer cells, and the abscissa depicts an anti-cancer drug (gemcitabine, nab-paclitaxel, or 5-FU) concentration in a medium. […] Among the pancreatic cancer organoids, cancer organoids with rich-stroma show lower sensitivity to anticancer drugs.
(§1) Each pre-existing human pancreatic cancer cell line was inoculated at 5×10^3 cells/well on a 96-well plate, and gemcitabine (10^−12 to 10^−3 M) was added thereto 24 hours later. Nuclear staining was performed 72 hours after the gemcitabine addition. A cell number was measured using IN Cell Analyzer 2000, and an IC50 value was calculated. In order to specifically detect cancer cells within an organoid and calculate a cancer cell number, luciferase gene-transfected cancer cells were established and used in analysis. A cancer organoid was formed from the luciferase gene-transfected cancer cells, and luminescence was measured in the presence of a luminescent substrate (e.g., Luciferase Assay System from Promega Corp.) to evaluate the number of cancer cells present.
On the other hand, for the large-scale preparation of pancreatic cancer cell organoids having a uniform size, human pancreatic cancer cells, HUVECs, and hMSCs were cocultured using a three-dimensional culture vessel (e.g., ELPLASIA plate from Kuraray Co., Ltd.) to reconstitute a human pancreatic cancer cell line organoid. The pancreatic cancer cells of each line were inoculated at 1×10^4 cells on each well of a 96-well plate which was also inoculated with arbitrary numbers of HUVECs and hMSCs to reconstitute a cancer organoid. The mixing ratio of the cancer cells, HUVECs, and hMSCs was set to 10:0:0, 10:7:1, 10:7:20, 10:7:0, or 10:0:20.
In order to evaluate the drug sensitivity of cancer cells with high accuracy, an approach for quantitatively evaluating only the number of cancer cells within a cancer organoid was studied (FIG. 14). Luciferase gene-transfected cancer cells (CFPAC-1, PANC-1, or CAPAN-2; typically, CFPAC-1) were established, and a cancer organoid was reconstituted. Then, a luminescent substrate was added thereto, and the luminescence intensity of each well was measured using a luminescence plate reader. The luciferase gene-transfected cancer cells were inoculated at various cell numbers onto a multi-well plate, followed by luciferase assay. As a result, the luminescence intensity was confirmed to be proportional to the cell number (FIG. 15). […]
A pancreatic cancer organoid was reconstituted from luciferase gene-transfected pancreatic cancer cells and stromal cells and evaluated for its sensitivity for a pancreatic cancer therapeutic (anti-cancer drug) (FIG. 17). […]

In another assay the test system is CFPAC-1. Nature of the assay: In vitro drug sensitivity of pre-existing human pancreatic cancer cell line (surviving cell number, IC50). In kind it is cell-based. Conditions: cells surviving 72 hours after addition. On the procedure:
(§2) 8000 cells of human pancreatic cancer cell line were seeded in each well of a 96-well plate, and gemcitabine was added at 24 hours. At 72 hours, the number of viable cells was measured and summarized in a graph. The pancreatic cancer cells of each line were subcutaneously transplanted to NOD/Scid mice. Gemcitabine was intraperitoneally administered at 100 mg/kg from the point in time when the tumor volume reached 100 mm^3. Change in tumor size after the gemcitabine administration was evaluated. The discrepancy between the in vitro anti-cancer drug sensitivity and the in vivo anti-cancer drug sensitivity was confirmed.
as §1
(§3) The in vitro drug sensitivity of a pre-existing human pancreatic cancer cell line CFPAC-1, PANC-1, or SW1990 was evaluated. 10^−12 to 10^−3M GEM was added to the cells cultured for 24 hours, and IC50 was calculated from the number of cells surviving 72 hours after the addition. As a result, IC50 of CFPAC-1, PANC-1, or SW1990 was 0.03 μM, 0.7 μM, or 0.2 μM, respectively (upper panels of FIG. 1). On the other hand, the cancer cells were subcutaneously transplanted to NOD/Scid mice, and the xenograft formed was evaluated for its in vivo drug sensitivity by the administration of GEM at 100 mg/kg.

The next assay has as its system PANC-1. The description is as above. To be noted: cells surviving 72 hours after addition. In kind it is cell-based. The method, then: as §2, §1, §3
Another assay relates to SW1990. The assay is described as above. It is filed as cell-based. Conditions: cells surviving 72 hours after addition. On the procedure:
as §2, §1, §3

The test system of another assay is CFPAC-1 xenograft. Briefly: In vivo drug sensitivity of subcutaneous cell line xenograft. Further details: species or system NOD/Scid mice. Conditions: 100 mg/kg intraperitoneal. The method, then: (§4) 8000 cells of human pancreatic cancer cell line were seeded in each well of a 96-well plate, and gemcitabine was added at 24 hours. At 72 hours, the number of viable cells was measured and summarized in a graph. The pancreatic cancer cells of each line were subcutaneously transplanted to NOD/Scid mice. Gemcitabine was intraperitoneally administered at 100 mg/kg from the point in time when the tumor volume reached 100 mm^3. Change in tumor size after the gemcitabine administration was evaluated.
(§5) Each pre-existing human pancreatic cancer cell line was subcutaneously transplanted at 1×10^6 cells to each of 4- to 10-week old female immunodeficient mice (NOD/Scid mice) to prepare a xenograft. The number of xenografts formed and the volume of each xenograft were measured over time. The volume was calculated according to (minor axis×minor axis×major axis/2) mm^3. The intraperitoneal administration of gemcitabine was started from the point in time when the volume of the xenograft formed exceeded 100 mm^3. The dose concentration of gemcitabine was set to 100 mg/kg, 0 mg/kg, 5 mg/kg, or 10 mg/kg, and gemcitabine was administered once every three days for 3 weeks. Then, the xenograft was resected.
(§6) The in vitro drug sensitivity of a pre-existing human pancreatic cancer cell line CFPAC-1, PANC-1, or SW1990 was evaluated. 10^−12 to 10^−3M GEM was added to the cells cultured for 24 hours, and IC50 was calculated from the number of cells surviving 72 hours after the addition.

The subject of another assay is PANC-1 xenograft. Described as above. To be noted: 100 mg/kg intraperitoneal. Further details: species or system NOD/Scid mice. The method, then:
as §4, §5, §6

Another assay concerns SW1990 xenograft. The description is as above. The arrangement: species or system NOD/Scid mice. To be noted: 100 mg/kg intraperitoneal. On the procedure: as §4, §5, §6
Assay [2] relates to pre-existing human pancreatic cancer cell line (CFPAC-1) organoid-derived xenograft. Nature of the assay: Drug sensitivity of human pancreatic cancer organoid-derived xenograft (tumor volume). In kind it is in vivo, NOD/Scid mice. Conditions: for xenograft regression: e.g. 10 mg/kg. Background: Xenograft models place foreign cells or tissue in a host animal.
Description: After transplantation of the human pancreatic cancer cells or the human pancreatic cancer cell organoid to immunodeficient mice (NOD/Scid), gemcitabine was administered thereto at 3-day intervals from the point in time when the tumor size exceeded 100 mm3. […] A xenograft was prepared by the subcutaneous transplantation of a human pancreatic cancer cell organoid. Then, the intraperitoneal administration of gemcitabine was started from the point in time when the volume of the xenograft exceeded 100 mm^3. The dose concentration of gemcitabine was set to 0 mg/kg, 5 mg/kg, or 10 mg/kg, and the administration frequency and period were set to once every three days for 3 weeks. The volume of the xenograft was measured at appropriate times. […] The in vivo drug sensitivity of a xenograft reconstituted after transplantation of each organoid was evaluated using a typical pancreatic cancer therapeutic Gemzar (gemcitabine: GEM). A pre-existing human pancreatic cancer cell line organoid prepared by the three-dimensional coculture of a pre-existing human pancreatic cancer cell line, HUVECs, and hMSCs was subcutaneously transplanted to NOD/Scid mice. Then, the administration of GEM (e.g., 10 mg/kg) was started from the point in time when the tumor volume exceeded 100 mm^3. A non-GEM-administration group (0 mg/kg) given only physiological saline was set as a control group. GEM was administered once every three days for 30 days with reference made to a treatment regimen for human pancreatic cancer. A xenograft was recovered at GEM administration day 30 and analyzed histologically.
For assay [3], the system named is CFPAC-1-derived cancer organoid xenograft. Nature of the assay: Tumor size after discontinuation of gemcitabine administration (recurrence). In kind it is in vivo. To be noted: 30 mg/kg for 30 days. The method, then:
Whether a xenograft reconstituted from a cancer organoid could reproduce the recurrence of pancreatic cancer was studied. […] The right diagrams show a macro photograph of the xenograft in each period. […] After cancer organoid (CFPAC-1-derived) transplantation, gemcitabine was administered (30 mg/kg) for 30 days. Then, the gemcitabine administration was discontinued.

The test system of assay [4] is human lung cancer cell line (A549 cells). Briefly: In vitro drug sensitivity of human lung cancer cell line organoid (luciferase activity). It is filed as cell-based. On the procedure:
FIG. 29 A lung cancer organoid prepared three-dimensionally using a human lung cancer cell line (A549 cells) expressing luciferase gene and EGFP, as well as HUVECs and hMSCs, and a three-dimensional aggregate composed of only pancreatic cancer cells were evaluated for their in vitro drug sensitivity. The left diagrams show a fluorescence phase-contrast microscope image of the lung cancer organoid. In the graph of the right diagram, the ordinate depicts the amount of luciferase activity of the lung cancer cells, and the abscissa depicts an anti-cancer drug (gemcitabine) concentration in the medium. […] A pre-existing human lung cancer cell line (A549) was introduced from ATCC. In the present study, this cell line was introduced and then used at a passage number of 10 or less in experiments. The pre-existing human lung cancer cell line was transfected with luciferase gene in advance. The human lung cancer cell line, HUVECs, and hMSCs were inoculated onto a three-dimensional culture vessel ([…] plate from Kuraray Co., Ltd.) to reconstitute a human lung cancer cell line organoid. The human lung cancer cell line was inoculated at 3×10^3 cells on each well of a 96-well plate which was also inoculated with arbitrary numbers of HUVECs and hMSCs to reconstitute a cancer organoid. The mixing ratio of the cancer cells, HUVECs, and hMSCs was set to 10:0:0, 10:7:1 (Low hMSC), or 10:7:20 (High hMSC). A lung cancer organoid prepared three-dimensionally using a luciferase gene and EGFP expressing human lung cancer cell line (A549 cells), HUVECs, and hMSCs, and a three-dimensional aggregate composed of only pancreatic cancer cells were evaluated for their in vitro drug sensitivity. The left diagrams show a fluorescence phase-contrast microscope image of the lung cancer organoid. In the graph of the right diagram, the ordinate depicts the amount of luciferase activity of the lung cancer cells, and the abscissa depicts an anti-cancer drug (gemcitabine) concentration in a medium.

For assay [5], the system named is primary human pancreatic cancer cells. Briefly: In vitro gemcitabine sensitivity of primary human pancreatic cancer organoid (luciferase). To be noted: primary pancreatic cancer organoid versus pancreatic cancer cyst; 72 hours. In kind it is cell-based.
Description: Pancreatic cancer cells transfected with luciferase gene were used for experiments. […] The three-dimensional coculture method abides by the method for a pancreatic cancer organoid from a pancreatic cancer cell line. […] Luciferase gene-transfected primary human pancreatic cancer cells were established, and a primary pancreatic cancer organoid (pancreatic cancer cells: 2×10^4 cells) was reconstituted in vitro and then cultured for 72 hours in the presence of gemcitabine. Then, a luminescent substrate was added thereto, and the luminescence intensity of each organoid was measured using a luminescence plate reader and analyzed.
Assay [6] has as its system primary pancreatic cancer organoid xenograft. Briefly: In vivo drug sensitivity of primary human pancreatic cancer organoid xenograft (tumor size). The arrangement: species or system immunodeficient mice. Conditions: primary organoid transplantation group versus cyst transplantation group; once every three days. On the procedure: FIG. 28 A primary cancer organoid was prepared from a primary cancer cell line, and a xenograft was reconstituted in immunodeficient mice in vivo. […] A primary pancreatic cancer organoid (pancreatic cancer cells: 2×10^5 cells) was reconstituted in vitro and then transplanted to immunodeficient mice. […] Gemcitabine was administered thereto once every three days from the point in time when a xenograft reached 100 mm^3.

For assay [7], the system named is primary pancreatic cancer organoid. Nature of the assay: Drug sensitivity of primary human pancreatic cancer organoid versus patient prognosis (luciferase activity). It is filed as cell-based. Conditions: organoid from patient having postoperative recurrence; 72 hours. On the procedure:
Pancreatic cancer cells were separated from a surgically resected preparation of each pancreatic cancer patient and expanded culture was performed by the cyst culture method to obtain primary human pancreatic cancer cells. […] The obtained primary human pancreatic cancer cells were three-dimensionally cocultured with stromal cells (vascular endothelial cells (HUVECs, etc.) and mesenchymal cells (hMSCs, etc.)) to reconstitute a primary pancreatic cancer organoid. Its drug sensitivity was evaluated. The mixing ratio of these cells at the time of primary pancreatic cancer organoid preparation was 10:7:20. The number of specimens was 2. Primary pancreatic cancer cells were separated from a surgically resected specimen of each pancreatic cancer patient (with or without postoperative recurrence), subjected to expanded culture, and then transfected with luciferase gene. Then, these cancer cells were three-dimensionally cocultured with stromal cells to reconstitute a primary pancreatic cancer organoid. The reconstituted human pancreatic cancer organoid was cultured for 72 hours in the presence of gemcitabine at respective concentrations, followed by luciferase activity measurement.

Assay [8] deals with EGFP gene-transfected cancer cells (typically, CFPAC-1) organoid. Briefly: Residual cells in cancer organoid cultured with anti-cancer drug. In kind it is cell-based, human. Conditions: 1 uM, 72 hours. On the procedure:
Residual cancer cells expressing GFP and mesenchymal cells expressing αSMA are observed even after anti-cancer drug (gemcitabine) administration. Increase in positive ratio of a cancer stem cell marker Sox9 was confirmed in the residual cancer cells. The properties of cancer cells remaining after anti-cancer drug addition and stromal cells within a cancer organoid were evaluated. EGFP gene-transfected cancer cells (typically, CFPAC-1) were established, and a cancer organoid was reconstituted (the cancer cell:HUVEC:hMSC ratio is, for example, 10:7:10 to 10:7:20). Then, the cancer organoid was cultured for 72 hours in a medium containing 1 uM gemcitabine.

For assay [9], the system named is pancreatic cancer organoid-derived xenograft. Nature of the assay: Immunostaining of residual xenograft tissue after gemcitabine administration. It is filed as in vivo, immunodeficient mice.
Description: A paraffin section was deparaffinized, then dipped in a citrate buffer, and activated at 121° C. for 20 minutes. After washing with PBS containing 0.05% Tween 20 (PBST) for 5 minutes three times, a buffer for blocking (Dako Japan Co., Ltd.) was added to the section, and blocking reaction was performed at room temperature for 1 hour. Next, a primary antibody solution was added thereto and reacted overnight at 4° C. After the primary antibody (anti-EpCAM antibody, anti-αSMA antibody, anti-cytokeratin 7 (CK7) antibody, anti-CD31 antibody, or anti-laminin antibody) reaction, the section was washed with PBST for 5 minutes three times. A secondary antibody solution diluted with a buffer solution was added thereto and reacted at room temperature for 1 hour in the dark. After the secondary antibody reaction, the section was washed with PBST for 5 minutes three times and mounted on a glass slide using a mounting agent containing a DAPI staining solution (Wako Pure Chemical Industries, Ltd.). A pre-existing human pancreatic cancer cell line was transplanted at 2×10^5 cells to immunodeficient mice. After a xenograft reached 100 mm^3, gemcitabine was administered thereto once every three days. […] A pancreatic cancer cell line was transplanted to immunodeficient mice. Then, gemcitabine administration was started from the point in time when a xenograft reached 100 mm^3. […]
The mark [10] stands for this setting: pancreatic cancer organoid (with HUVECs and hMSCs).
Setting [11] is: two-dimensionally cultured pancreatic cancer cells.

Turning to `O=c1[nH]cc(F)c(=O)[nH]1` [5-FU], the “drug sensitivity (luciferase activity)” value is listed as “lower drug sensitivity” in [1] (setting [10]) and “high sensitivity” in [1] (setting [11]).
Regarding `Nc1ccn([C@@H]2O[C@H](CO)[C@@H](O)C2(F)F)c(=O)n1` [gemcitabine], the IC50 (commonly the concentration that inhibits the measured activity by half) in the assay with CFPAC-1 amounted to 30 nM; in the assay with PANC-1 it was 700 nM; with SW1990, 200 nM. Also, the values for the tumor regression result in the assay on CFPAC-1 xenograft, in the assay on PANC-1 xenograft and in the assay with SW1990 xenograft were “tumor regression was found”, “tumor regression was found” and “no tumor regression was found”, respectively. Further, the “drug sensitivity (luciferase activity)” value is recorded as “lower drug sensitivity” in assay [1] (setting [10]); “high sensitivity” in [1] (setting [11]); “even lower sensitivity” in assay [4] (High stroma group (hMSCs and HUVECs with high incidence)); “high sensitivity” in assay [4] (lung cancer cell aggregate); “lower drug sensitivity” in [4] (organoid culture groups); “resistance” in [7]. Also, the “increase in xenograft volume” value in assay [2] (all transplantation groups, e.g. 10 mg/kg once every three days for 30 days, versus non-GEM group) is reported as “suppressed”. Moreover, the xenograft regression result in [2] (organoid with hMSCs in a large number (High hMSC)) is “exhibited no regression and increased in volume”; in assay [2] (organoids of the other groups) it was “exhibited regression”. Further, the “tumor size after discontinuation of administration” value in [3] (pancreatic cancer organoid transplantation group) is “increased markedly”; in assay [3] (suspension transplantation group) it was “constant tumor size”. The “drug resistance (luminescence intensity)” value in assay [5] is “significantly high drug resistance”. For the same molecule, in assay [6], the “drug resistance (tumor size)” value is on record as “significantly high drug resistance”. Further, in assay [8], the “residual cancer stem cells in organoid” value was “GFP-positive and Sox9-positive cancer stem cells are confirmed to remain”. For the same molecule, in assay [9] (cancer organoid transplantation group, administration day 30), the “ABCG2-expressing pancreatic cancer cells after administration” value was “Pancreatic cancer cells expressing ABCG2 are confirmed to remain”. Besides, in [9] (organoid-derived xenograft, 1 month after start of administration once every three days), the “Ki67-positive cells after administration” value is on record as “high incidence of Ki67-positive cells”.
